Source: publication PMC9304232 (Epilepsia, 2022)
Like-named read-outs stand apart in the source and are kept apart here.

Tests used:
hNaV1.6 [1] = molecular target: T1, hNaV1.6 (Homo sapiens, UniProt Q9UQD0); assay: Peak INa voltage‐dependent block; details: for Peak INa VDB, slope: Hill slope; for Ratio to persistent INa (peak INa VDB): VDB IC50 / persistent INa IC50
hNaV1.6 [2] = molecular target: T1, hNaV1.6; assay: Peak INa use‐dependent block; assay type: cell-based; details: for Peak INa UDB, 10 Hz, slope: Hill slope; for Peak INa UDB, 10 Hz, slope / Ratio to persistent INa (peak INa UDB) / Ratio to peak INa TB (peak INa UDB): hNaV1.6; for Use‐dependent block at a stimulation frequency of 10 Hz: hNaV1.6, Figure 2E,F; for Ratio to persistent INa (peak INa UDB): UDB IC50 / persistent INa IC50; for Ratio to peak INa TB (peak INa UDB): preference of use‐dependent block over tonic block
male CD‐1 mice [3] = assay: Mouse spontaneous locomotor activity; assay type: in vivo; details: for sLMA TD50: PRAX‐562 po, CBZ and LTG ip, dose reducing sLMA by 50%; for sLMA TC50, free brain: calculated free brain concentration
hNaV1.6 [4] = molecular target: T1, hNaV1.6; assay: Peak INa tonic block; assay type: cell-based; details: for Peak INa TB, slope: Hill slope; for Peak INa TB, slope / Ratio to persistent INa (peak INa TB): hNaV1.6; for Ratio to persistent INa (peak INa TB): TB IC50 / persistent INa IC50
hNaV1.6 [5] = molecular target: T1, hNaV1.6; assay: ATX‐II‐induced persistent INa, whole‐cell patch clamp; details: for Persistent INa, slope: Hill slope of IC50 fit, hNaV1.6
male CD‐1 mice [6] = assay: Mouse maximal electroshock seizure; assay type: in vivo; details: for EC50: Mus musculus; for MES ED50 (increasing latency to tonic extension seizures): PRAX‐562 po, CBZ and LTG ip
male CD‐1 mice [7] = assay: Protective index; assay type: in vivo, mouse; details: for PI (plasma TC50/plasma EC50): based on free plasma concentrations
[8] = tested on: mice with Scn8a (NaV1.6‐N1768D/+, NaV1.6‐R1872W/+) or Scn2a (NaV1.2‐Q54) variants; details: Scn8a or Scn2a gain‐of‐function variants; ref [20], [21], [22]; cited from earlier work
hNaV1.2 [9] = molecular target: T2, hNaV1.2 (Homo sapiens, UniProt Q99250); assay: Peak INa voltage‐dependent block, patch clamp; assay type: cell-based; details: VDB IC50 / persistent IC50
hNaV1.5 [10] = molecular target: T3, hNaV1.5 (Homo sapiens, UniProt Q14524); assay: Peak INa tonic block, patch clamp; assay type: cell-based; details: TB / persistent IC50
hNaV1.2 [11] = molecular target: T2, hNaV1.2; assay: Peak INa tonic block, patch clamp; assay type: cell-based; details: TB IC50 / persistent IC50
[12] = tested on: hippocampal CA1 pyramidal neurons; assay: Evoked action potential firing; assay type: cell-based; details: wild‐type mouse CA1 neurons
hNaV1.1 [13] = molecular target: T4, hNaV1.1 (Homo sapiens, UniProt P35498); assay: Peak INa tonic block, patch clamp; assay type: cell-based; details: TB IC50 / persistent IC50
hNaV1.1 [14] = molecular target: T4, hNaV1.1; assay: Peak INa voltage‐dependent block, patch clamp; assay type: cell-based; details: VDB IC50 / persistent IC50
hNaV1.5 [15] = molecular target: T3, hNaV1.5; assay: Peak INa voltage‐dependent block, patch clamp; assay type: cell-based; details: VDB IC50 / persistent IC50
[16] = male CD‐1 mice, po, total brain

T1 sequence (Q9UQD0 whole entry): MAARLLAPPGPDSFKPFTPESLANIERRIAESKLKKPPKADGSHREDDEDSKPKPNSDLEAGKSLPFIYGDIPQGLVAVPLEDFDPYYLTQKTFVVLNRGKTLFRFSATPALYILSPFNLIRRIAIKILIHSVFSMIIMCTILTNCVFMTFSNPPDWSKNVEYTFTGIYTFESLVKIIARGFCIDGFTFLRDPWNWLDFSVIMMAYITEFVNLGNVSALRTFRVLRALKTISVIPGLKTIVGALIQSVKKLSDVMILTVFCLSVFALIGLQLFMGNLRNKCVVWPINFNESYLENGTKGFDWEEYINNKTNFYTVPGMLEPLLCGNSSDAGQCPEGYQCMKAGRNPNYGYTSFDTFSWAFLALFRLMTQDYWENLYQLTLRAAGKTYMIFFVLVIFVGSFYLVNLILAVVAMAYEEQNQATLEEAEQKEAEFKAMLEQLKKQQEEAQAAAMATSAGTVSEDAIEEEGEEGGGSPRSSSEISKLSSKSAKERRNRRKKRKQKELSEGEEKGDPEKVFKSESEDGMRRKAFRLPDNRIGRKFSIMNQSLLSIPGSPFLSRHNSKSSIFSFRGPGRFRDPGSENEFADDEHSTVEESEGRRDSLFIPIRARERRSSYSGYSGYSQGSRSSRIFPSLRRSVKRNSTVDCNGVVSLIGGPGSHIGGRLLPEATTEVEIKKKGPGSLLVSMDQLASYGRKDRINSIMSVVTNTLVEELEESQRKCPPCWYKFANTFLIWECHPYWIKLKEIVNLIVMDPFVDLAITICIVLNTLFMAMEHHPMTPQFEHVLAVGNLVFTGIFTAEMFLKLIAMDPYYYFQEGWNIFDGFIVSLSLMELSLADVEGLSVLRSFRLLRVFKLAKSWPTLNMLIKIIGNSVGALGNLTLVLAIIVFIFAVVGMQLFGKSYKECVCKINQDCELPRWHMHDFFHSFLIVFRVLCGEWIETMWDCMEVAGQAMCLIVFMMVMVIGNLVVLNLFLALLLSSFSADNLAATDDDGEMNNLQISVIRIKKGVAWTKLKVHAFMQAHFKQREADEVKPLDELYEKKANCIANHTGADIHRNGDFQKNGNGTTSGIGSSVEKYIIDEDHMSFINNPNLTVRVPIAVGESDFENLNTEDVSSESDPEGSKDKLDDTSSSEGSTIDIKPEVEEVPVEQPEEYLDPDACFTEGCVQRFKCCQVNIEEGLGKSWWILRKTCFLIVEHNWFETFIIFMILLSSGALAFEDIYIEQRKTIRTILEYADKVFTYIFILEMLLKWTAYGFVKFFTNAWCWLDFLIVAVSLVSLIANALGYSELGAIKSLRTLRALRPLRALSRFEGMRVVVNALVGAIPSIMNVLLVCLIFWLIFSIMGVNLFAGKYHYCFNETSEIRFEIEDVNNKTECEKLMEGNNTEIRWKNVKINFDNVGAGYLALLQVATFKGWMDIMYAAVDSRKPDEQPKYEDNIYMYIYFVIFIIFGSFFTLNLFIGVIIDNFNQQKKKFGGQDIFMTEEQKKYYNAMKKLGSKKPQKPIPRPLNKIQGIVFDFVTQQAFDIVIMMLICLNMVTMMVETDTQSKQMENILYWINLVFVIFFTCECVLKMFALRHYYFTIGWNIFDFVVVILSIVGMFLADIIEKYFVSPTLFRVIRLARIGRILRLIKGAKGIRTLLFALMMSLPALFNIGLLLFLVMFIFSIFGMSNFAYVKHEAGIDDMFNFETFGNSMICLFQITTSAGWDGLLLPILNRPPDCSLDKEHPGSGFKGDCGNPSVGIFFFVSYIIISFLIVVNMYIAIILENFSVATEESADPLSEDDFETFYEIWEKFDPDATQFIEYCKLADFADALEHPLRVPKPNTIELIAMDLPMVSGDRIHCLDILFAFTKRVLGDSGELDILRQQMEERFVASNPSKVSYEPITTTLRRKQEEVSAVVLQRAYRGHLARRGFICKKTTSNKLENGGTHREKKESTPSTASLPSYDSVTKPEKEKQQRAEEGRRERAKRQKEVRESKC
T3 sequence (Q14524 1-2015 isoform Q14524-2): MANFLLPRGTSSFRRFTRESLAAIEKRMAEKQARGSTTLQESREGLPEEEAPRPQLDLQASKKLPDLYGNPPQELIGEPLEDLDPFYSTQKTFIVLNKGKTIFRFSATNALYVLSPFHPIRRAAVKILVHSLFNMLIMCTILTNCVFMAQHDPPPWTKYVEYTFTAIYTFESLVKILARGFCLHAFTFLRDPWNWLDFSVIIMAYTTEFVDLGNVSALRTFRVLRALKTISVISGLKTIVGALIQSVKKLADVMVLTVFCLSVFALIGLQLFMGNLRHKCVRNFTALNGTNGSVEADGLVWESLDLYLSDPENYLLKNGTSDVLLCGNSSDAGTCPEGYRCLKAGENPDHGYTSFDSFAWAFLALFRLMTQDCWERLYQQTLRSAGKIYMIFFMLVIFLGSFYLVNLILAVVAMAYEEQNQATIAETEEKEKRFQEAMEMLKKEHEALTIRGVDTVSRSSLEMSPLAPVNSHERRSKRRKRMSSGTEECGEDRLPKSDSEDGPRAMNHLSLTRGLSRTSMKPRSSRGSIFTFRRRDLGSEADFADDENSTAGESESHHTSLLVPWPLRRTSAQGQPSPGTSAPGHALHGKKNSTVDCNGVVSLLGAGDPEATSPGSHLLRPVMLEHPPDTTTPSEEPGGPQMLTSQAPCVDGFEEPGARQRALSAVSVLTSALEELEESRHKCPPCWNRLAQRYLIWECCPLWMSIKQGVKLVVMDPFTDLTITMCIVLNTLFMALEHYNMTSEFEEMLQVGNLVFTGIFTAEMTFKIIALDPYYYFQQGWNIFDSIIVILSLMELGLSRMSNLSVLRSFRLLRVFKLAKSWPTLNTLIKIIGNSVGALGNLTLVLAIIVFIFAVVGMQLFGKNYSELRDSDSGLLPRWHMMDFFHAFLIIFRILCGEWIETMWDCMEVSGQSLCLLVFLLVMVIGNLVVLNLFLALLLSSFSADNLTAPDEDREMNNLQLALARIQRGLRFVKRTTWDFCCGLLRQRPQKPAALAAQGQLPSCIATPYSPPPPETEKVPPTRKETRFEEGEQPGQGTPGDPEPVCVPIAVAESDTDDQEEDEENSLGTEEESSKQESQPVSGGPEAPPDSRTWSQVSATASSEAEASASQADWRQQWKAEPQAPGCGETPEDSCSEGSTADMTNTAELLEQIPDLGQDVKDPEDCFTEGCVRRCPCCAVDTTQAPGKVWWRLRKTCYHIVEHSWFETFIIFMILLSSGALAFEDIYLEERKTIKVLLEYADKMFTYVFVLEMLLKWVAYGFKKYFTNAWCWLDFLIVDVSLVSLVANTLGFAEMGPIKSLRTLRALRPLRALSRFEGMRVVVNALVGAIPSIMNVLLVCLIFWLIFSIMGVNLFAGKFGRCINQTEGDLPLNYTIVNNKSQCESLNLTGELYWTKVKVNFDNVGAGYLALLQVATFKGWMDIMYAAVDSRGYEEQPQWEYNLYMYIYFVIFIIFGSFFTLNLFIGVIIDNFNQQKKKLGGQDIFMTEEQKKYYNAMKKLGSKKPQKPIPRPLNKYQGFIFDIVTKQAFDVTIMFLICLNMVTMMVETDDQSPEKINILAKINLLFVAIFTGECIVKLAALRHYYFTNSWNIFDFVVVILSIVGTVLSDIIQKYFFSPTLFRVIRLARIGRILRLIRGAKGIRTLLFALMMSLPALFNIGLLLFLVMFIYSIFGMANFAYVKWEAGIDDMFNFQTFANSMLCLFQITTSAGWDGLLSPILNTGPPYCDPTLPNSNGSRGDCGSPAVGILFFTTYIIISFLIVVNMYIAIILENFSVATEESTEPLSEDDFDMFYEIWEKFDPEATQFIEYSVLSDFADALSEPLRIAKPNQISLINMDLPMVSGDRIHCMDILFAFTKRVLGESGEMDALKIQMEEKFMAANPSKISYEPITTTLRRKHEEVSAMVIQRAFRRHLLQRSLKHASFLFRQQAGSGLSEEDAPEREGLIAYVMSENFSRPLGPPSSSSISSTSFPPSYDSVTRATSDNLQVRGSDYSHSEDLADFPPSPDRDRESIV

In the case of `NC(=O)N1c2ccccc2C=Cc2ccccc21` [Carbamazepine, carbamazepine], the “Peak INa VDB, slope” value (hNaV1.6 [1]) is reported as “.9”, the “Peak INa UDB, 10 Hz, slope” value (hNaV1.6 [2]) is reported as “.9” and the “Use‐dependent block at a stimulation frequency of 10 Hz” value (hNaV1.6 [2]) is reported as “not observed”. The “Sedation/sLMA at the dose required for complete seizure prevention” value (male CD‐1 mice [3]; ip) was “significant reduction in sLMA”, the “sLMA TD50” value (male CD‐1 mice [3]; male CD‐1 mice, listed as CBZ) was 26.5 mg/kg and the “sLMA TC50, free brain” value (male CD‐1 mice [3]; male CD‐1 mice) was 14 350 nmol·L^–1. For the same molecule, the “Peak INa TB, slope” value (hNaV1.6 [4]) was 1.0, the “Persistent INa, slope” value (hNaV1.6 [5]) was 1.1 and the IC50 (hNaV1.6 [5]; Persistent INa, IC50, hNaV1.6, 200 nmol·L^–1 ATX‐II, holding −120 mV) was 77.5 µM. For the same molecule, the EC50 (male CD‐1 mice [6]; read-out: MES EC50, free brain) was 2.41 µM, the “MES ED50 (increasing latency to tonic extension seizures)” value (male CD‐1 mice [6]; male CD‐1 mice, listed as CBZ) was 3.4 mg/kg and the “PI (plasma TC50/plasma EC50)” value (male CD‐1 mice [7]) was 3.4.
For `NC(=O)O[C@@H](Cn1ncnn1)c1ccccc1Cl` [Cenobamate], the “Peak INa VDB, slope” value (hNaV1.6 [1]) was “.9”, the “Ratio to persistent INa (peak INa VDB)” value (hNaV1.6 [1]) was “.9” and the “Peak INa UDB, 10 Hz, slope” value (hNaV1.6 [2]) was “.7”. For the same molecule, the “Ratio to persistent INa (peak INa UDB)” value (hNaV1.6 [2]) was 11, the “Ratio to peak INa TB (peak INa UDB)” value (hNaV1.6 [2]) was 2.3 and the “Peak INa TB, slope” value (hNaV1.6 [4]) was 1.1. The “Ratio to persistent INa (peak INa TB)” value (hNaV1.6 [4]) was 24 and the “Persistent INa, slope” value (hNaV1.6 [5]) was 1.1.
With `COC[C@@H](NC(C)=O)C(=O)NCc1ccccc1` [Lacosamide] the “Peak INa VDB, slope” value (hNaV1.6 [1]) was 1.2, the “Ratio to persistent INa (peak INa VDB)” value (hNaV1.6 [1]) was “.3” and the “Peak INa UDB, 10 Hz, slope” value (hNaV1.6 [2]) was 1.3. The “Ratio to persistent INa (peak INa UDB)” value (hNaV1.6 [2]) was “.8” and the “Persistent INa, slope” value (hNaV1.6 [5]) was “.9”.
For `Nc1nnc(-c2cccc(Cl)c2Cl)c(N)n1` [Lamotrigine, lamotrigine], the “Peak INa VDB, slope” value (hNaV1.6 [1]) was “.9”, the “Peak INa UDB, 10 Hz, slope” value (hNaV1.6 [2]) was 1.0 and the “Use‐dependent block at a stimulation frequency of 10 Hz” value (hNaV1.6 [2]) was “not observed”. For the same molecule, the “sLMA TD50” value (male CD‐1 mice [3]; male CD‐1 mice, listed as LTG) was 37.6 mg/kg, the “sLMA TC50, free brain” value (male CD‐1 mice [3]; male CD‐1 mice) was 12 853 nmol·L^–1 and the “Peak INa TB, slope” value (hNaV1.6 [4]) was “.8”. For the same molecule, the “Persistent INa, slope” value (hNaV1.6 [5]) was 1.0, the EC50 (male CD‐1 mice [6]; read-out: MES EC50, free brain) was 2.75 µM and the “MES ED50 (increasing latency to tonic extension seizures)” value (male CD‐1 mice [6]; male CD‐1 mice, listed as LTG) was 5.0 mg/kg.
In the case of `NC(=O)N1c2ccccc2CC(=O)c2ccccc21` [Oxcarbazepine], the “Peak INa VDB, slope” value (hNaV1.6 [1]) is reported as 1.1, the “Ratio to persistent INa (peak INa VDB)” value (hNaV1.6 [1]) is reported as “.3” and the “Peak INa TB, slope” value (hNaV1.6 [4]) is reported as 1.7. The “Ratio to persistent INa (peak INa TB)” value (hNaV1.6 [4]) was 8 and the “Persistent INa, slope” value (hNaV1.6 [5]) was 1.0.
For `FC(F)(F)Oc1ccc(-c2ccc3nnc(C(F)(F)F)n3c2)cc1` [PRAX‐330], the “Seizures and premature death in NaV DEE mouse models” value [8] is given as “protected mice from seizures and premature death”.
With `CCOC(F)(F)c1nnc2cnc(-c3cnc(OCC(F)(F)F)c(F)c3)cn12` [PRAX‐562, 3‐[ethoxydifluoromethyl]‐6‐[5‐fluoro‐6‐(2,2,2‐trifluoroethoxy)pyridin‐3‐yl]‐[1,2,4]triazolo[4,3‐a]pyrazine] the “Peak INa VDB, slope” value (hNaV1.6 [1]) was 1.0, the “Ratio to persistent INa (peak INa VDB)” value (hNaV1.6 [1]) was 2.2 and the “Ratio to Persistent INa (Peak INa VDB), hNaV1.2” value (hNaV1.2 [9]) was 8.2. For the same molecule, the “Peak INa UDB, 10 Hz, slope” value (hNaV1.6 [2]) was 1.3, the “Ratio to persistent INa (peak INa UDB)” value (hNaV1.6 [2]) was 2 and the “Ratio to peak INa TB (peak INa UDB)” value (hNaV1.6 [2]) was 31. For the same molecule, the “Ratio to Persistent INa (Peak INa TB), hNaV1.5” value (hNaV1.5 [10]) was over 174, the “Effect on locomotor function” value (male CD‐1 mice [3]; 10 mg/kg po) was “no effect” and the “Distance moved in sLMA” value (male CD‐1 mice [3]; 20 and 40 mg/kg po) was “reductions in the distance moved”. For the same molecule, the “sLMA TC50, plasma, free” value (male CD‐1 mice [3]; male CD‐1 mice, po, free plasma) was 308.9 nmol·L^–1, the “sLMA TC50, brain” value (male CD‐1 mice [3]; [16]) was 1899 ng/g and the “sLMA TC50, plasma” value (male CD‐1 mice [3]; male CD‐1 mice, po, total plasma) was 1.553 µg/mL. The “sLMA TC50, free brain” value (male CD‐1 mice [3]; male CD‐1 mice) was 69.7 nmol·L^–1, the “Peak INa TB, slope” value (hNaV1.6 [4]) was 1.0 and the IC50 (hNaV1.6 [4]; Peak INa TB, IC50, hNaV1.6 tonic block, .1 Hz) was 8.47 µM. For the same molecule, the “Ratio to persistent INa (peak INa TB)” value (hNaV1.6 [4]) was 60, the “Ratio to Persistent INa (Peak INa TB), hNaV1.2” value (hNaV1.2 [11]) was 80 and the “Intrinsic excitability, number of evoked APs” value ([12]; .3 µmol·L^–1) was “significantly reduced”. For the same molecule, the AP amplitude ([12]; .3 µmol·L^–1, +200 pA) was “minimal effects”, the “Persistent INa, slope” value (hNaV1.6 [5]) was 1.2 and the “Ratio to Persistent INa (Peak INa TB), hNaV1.1” value (hNaV1.1 [13]) was 173. The “Ratio to Persistent INa (Peak INa VDB), hNaV1.1” value (hNaV1.1 [14]) was 6.3, the “Mice that did not exhibit tonic seizures” value (male CD‐1 mice [6]; 10 mg/kg po, 30 min before MES) was 11 of 12 and the EC50 (male CD‐1 mice [6]; po, read-out: MES EC50, plasma) was 0.0901 µg/mL. For the same molecule, the EC50 (male CD‐1 mice [6]; po, read-out: MES EC50, plasma, free) was 0.0179 µM, the EC50 (male CD‐1 mice [6]; read-out: MES EC50, free brain) was 0.0043 µM and the “MES EC50, brain” value (male CD‐1 mice [6]; [16]) was 116 ng/g. The “Ratio to Persistent INa (Peak INa VDB), hNaV1.5” value (hNaV1.5 [15]) was 5.8, the “PI wider compared to CBZ and LTG” value (male CD‐1 mice [7]; acute, MES and sLMA models) was 3 × and the “PI (plasma TC50/plasma EC50)” value (male CD‐1 mice [7]) was about 17.
With `O=C1NC(=O)C(c2ccccc2)(c2ccccc2)N1` [Phenytoin] the “Peak INa VDB, slope” value (hNaV1.6 [1]) was 1.0, the “Ratio to persistent INa (peak INa VDB)” value (hNaV1.6 [1]) was “.8” and the “Peak INa UDB, 10 Hz, slope” value (hNaV1.6 [2]) was “.6”. The “Ratio to persistent INa (peak INa UDB)” value (hNaV1.6 [2]) was 15 and the “Persistent INa, slope” value (hNaV1.6 [5]) was “.8”.
